# From publication PMC5896778 (Developmental cell, 2018)
# Key:
# [1] = tested on: MT formation at Golgi fragments in HCMV-infected NHDFs; assay: Nocodazole washout assay, MT nucleation; type: cell-based, human; details: 10µM nocodazole for 8h, mock or AD169-infected NHDFs, 3d
# [2] = tested on: CDK activity and EB3 abundance in HCMV AD169-infected NHDFs; details: 3 µM
SMILES,"effect on MTs, Golgi and AC structures [1]","effect on IE2 expression ([2]; AD169 MOI 3, WB)","CDK substrate phosphorylation and increases in EB3 abundance by 3d.p.i. ([2]; daily inhibitor replenishment, AD169 MOI 3, 3d.p.i.)","effect on HCMV-induced CDK activation (pan-CDK1 substrate antibody) ([2]; replaced every 24h, AD169 MOI 3, WB)","effect on HCMV-induced increases in EB3 ([2]; replaced every 24h, AD169 MOI 3, WB, 1 and 2 d.p.i.)"
COC(=O)Nc1nc2ccc(C(=O)c3cccs3)cc2[nH]1 [nocodazole],depolymerized MTs and dispersed Golgi and AC structures,,,,
Nc1nc(Nc2ccc(S(N)(=O)=O)cc2)nn1C(=O)c1c(F)cccc1F [JNJ-7706621],,modestly affected IE2 expression,insensitive,suppressed HCMV-induced CDK activation,prevented increases in EB3 at 1 and 2 d.p.i.
